Test results reported in the supplement of paper PMC10307832.

How the values were obtained:
Test in all cases: relative viability (nuclei count vs DMSO), 5 days (fraction); higher = more cells survive
[1] = system: A-427
Procedure, shortened: (§1)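 Lung cancer cell lines in 1536-well plates got either a single drug or a fixed anchor-drug dose together with five library-drug doses (not always all listed) in √10 steps, by pin tool, on the day after seeding. Nuclei were counted after 5 days, and relative viability is the treated-to-vehicle ratio of nuclei counts. Values are medians of duplicate plates.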

[2] = system: COR-L 105
Procedure, shortened: as §1

[3] = system: ChaGo-K-1
Procedure, shortened: as §1

[4] = system: EKVX
Procedure, shortened: as §1

[5] = system: EMC-BAC-2
Procedure, shortened: as §1

[6] = system: H3255
Procedure, shortened: as §1

[7] = system: HCC-366
Procedure, shortened: as §1

[8] = system: LK-2
Procedure, shortened: as §1

[9] = system: LOU-NH91
Procedure, shortened: as §1

[10] = system: NCI-H1563
Procedure, shortened: as §1

[11] = system: NCI-H1666
Procedure, shortened: as §1

[12] = system: NCI-H1734
Procedure, shortened: as §1

[13] = system: NCI-H1755
Procedure, shortened: as §1

[14] = system: NCI-H1792
Procedure, shortened: as §1

[15] = system: NCI-H1975
Procedure, shortened: as §1

[16] = system: NCI-H2170
Procedure, shortened: as §1

[17] = system: NCI-H23
Procedure, shortened: as §1

[18] = system: NCI-H441
Procedure, shortened: as §1

[19] = system: NCI-H520
Procedure, shortened: as §1

[20] = system: NCI-H596
Procedure, shortened: as §1

[21] = system: PC-3 [JPC-3]
Procedure, shortened: as §1

[22] = system: SK-MES-1
Procedure, shortened: as §1

Q: With `Oc1nc(-c2ccc(C(F)(F)F)cc2)nc2c1CSCC2` [XAV939] + CS(=O)(=O)N1CCN(Cc2cc3nc(-c4cccc5[nH]ncc45)nc(N4CCOCC4)c3s2)CC1 [Pictilisib] (partner 1 µM) as the compound, how does the relative viability ([1]; first compound 0.08 µM) read?
A: 0.962

Q: And the relative viability ([1]; first compound 0.253 µM)?
A: 0.63

Q: What about the relative viability ([1]; first compound 0.8 µM) of the same compound?
A: 0.596

Q: What about the relative viability ([1]; first compound 2.53 µM) of the same compound?
A: 0.65

Q: What about the relative viability ([2]; first compound 0.08 µM) of the same compound?
A: 0.371

Q: What about the relative viability ([2]; first compound 0.253 µM) of the same compound?
A: 0.304

Q: What about the relative viability ([2]; first compound 0.8 µM) of the same compound?
A: 0.349

Q: What about the relative viability ([2]; first compound 2.53 µM) of the same compound?
A: 0.347

Q: What about the relative viability ([3]; first compound 0.08 µM) of the same compound?
A: 0.629

Q: What about the relative viability ([3]; first compound 0.253 µM) of the same compound?
A: 0.598

Q: And the relative viability ([3]; first compound 0.8 µM)?
A: 0.729

Q: And the relative viability ([3]; first compound 2.53 µM)?
A: 0.648

Q: What about the relative viability ([4]; first compound 0.08 µM) of the same compound?
A: 0.413

Q: What about the relative viability ([4]; first compound 0.253 µM) of the same compound?
A: 0.301

Q: And the relative viability ([4]; first compound 0.8 µM)?
A: 0.377

Q: What about the relative viability ([4]; first compound 2.53 µM) of the same compound?
A: 0.24

Q: What about the relative viability ([5]; first compound 0.08 µM) of the same compound?
A: 0.56

Q: What about the relative viability ([5]; first compound 0.253 µM) of the same compound?
A: 0.487

Q: What about the relative viability ([5]; first compound 0.8 µM) of the same compound?
A: 0.416

Q: And the relative viability ([5]; first compound 2.53 µM)?
A: 0.314

Q: And the relative viability ([6]; first compound 0.08 µM)?
A: 0.486

Q: What about the relative viability ([6]; first compound 0.253 µM) of the same compound?
A: 0.374

Q: What about the relative viability ([6]; first compound 0.8 µM) of the same compound?
A: 0.499

Q: And the relative viability ([6]; first compound 2.53 µM)?
A: 0.288

Q: What about the relative viability ([7]; first compound 0.08 µM) of the same compound?
A: 0.164

Q: And the relative viability ([7]; first compound 0.253 µM)?
A: 0.114

Q: And the relative viability ([7]; first compound 0.8 µM)?
A: 0.142

Q: And the relative viability ([7]; first compound 2.53 µM)?
A: 0.0889

Q: What about the relative viability ([8]; first compound 0.08 µM) of the same compound?
A: 0.565

Q: What about the relative viability ([8]; first compound 0.253 µM) of the same compound?
A: 0.505

Q: And the relative viability ([8]; first compound 0.8 µM)?
A: 0.643

Q: And the relative viability ([8]; first compound 2.53 µM)?
A: 0.607

Q: What about the relative viability ([9]; first compound 0.08 µM) of the same compound?
A: 0.498

Q: What about the relative viability ([9]; first compound 0.253 µM) of the same compound?
A: 0.471

Q: What about the relative viability ([9]; first compound 0.8 µM) of the same compound?
A: 0.509

Q: What about the relative viability ([9]; first compound 2.53 µM) of the same compound?
A: 0.504

Q: What about the relative viability ([10]; first compound 0.08 µM) of the same compound?
A: 0.645

Q: What about the relative viability ([10]; first compound 0.253 µM) of the same compound?
A: 0.656

Q: And the relative viability ([10]; first compound 0.8 µM)?
A: 0.605

Q: What about the relative viability ([10]; first compound 2.53 µM) of the same compound?
A: 0.611

Q: What about the relative viability ([11]; first compound 0.08 µM) of the same compound?
A: 0.378

Q: What about the relative viability ([11]; first compound 0.253 µM) of the same compound?
A: 0.333

Q: And the relative viability ([11]; first compound 0.8 µM)?
A: 0.279

Q: And the relative viability ([11]; first compound 2.53 µM)?
A: 0.411

Q: And the relative viability ([12]; first compound 0.08 µM)?
A: 0.488

Q: What about the relative viability ([12]; first compound 0.253 µM) of the same compound?
A: 0.418

Q: What about the relative viability ([12]; first compound 0.8 µM) of the same compound?
A: 0.371

Q: What about the relative viability ([12]; first compound 2.53 µM) of the same compound?
A: 0.383

Q: What about the relative viability ([13]; first compound 0.08 µM) of the same compound?
A: 0.456

Q: What about the relative viability ([13]; first compound 0.253 µM) of the same compound?
A: 0.353

Q: What about the relative viability ([13]; first compound 0.8 µM) of the same compound?
A: 0.413

Q: And the relative viability ([13]; first compound 2.53 µM)?
A: 0.388

Q: What about the relative viability ([14]; first compound 0.08 µM) of the same compound?
A: 0.331

Q: And the relative viability ([14]; first compound 0.253 µM)?
A: 0.254

Q: What about the relative viability ([14]; first compound 0.8 µM) of the same compound?
A: 0.229

Q: What about the relative viability ([14]; first compound 2.53 µM) of the same compound?
A: 0.257

Q: And the relative viability ([15]; first compound 0.08 µM)?
A: 0.258

Q: And the relative viability ([15]; first compound 0.253 µM)?
A: 0.263

Q: What about the relative viability ([15]; first compound 0.8 µM) of the same compound?
A: 0.248

Q: And the relative viability ([15]; first compound 2.53 µM)?
A: 0.207

Q: What about the relative viability ([16]; first compound 0.08 µM) of the same compound?
A: 0.298

Q: What about the relative viability ([16]; first compound 0.253 µM) of the same compound?
A: 0.277

Q: What about the relative viability ([16]; first compound 0.8 µM) of the same compound?
A: 0.269

Q: What about the relative viability ([16]; first compound 2.53 µM) of the same compound?
A: 0.26

Q: What about the relative viability ([17]; first compound 0.08 µM) of the same compound?
A: 0.46

Q: What about the relative viability ([17]; first compound 0.253 µM) of the same compound?
A: 0.351

Q: And the relative viability ([17]; first compound 0.8 µM)?
A: 0.33

Q: What about the relative viability ([17]; first compound 2.53 µM) of the same compound?
A: 0.33

Q: What about the relative viability ([18]; first compound 0.08 µM) of the same compound?
A: 0.605

Q: And the relative viability ([18]; first compound 0.253 µM)?
A: 0.461

Q: What about the relative viability ([18]; first compound 0.8 µM) of the same compound?
A: 0.517

Q: What about the relative viability ([18]; first compound 2.53 µM) of the same compound?
A: 0.603

Q: What about the relative viability ([19]; first compound 0.08 µM) of the same compound?
A: 0.24

Q: What about the relative viability ([19]; first compound 0.253 µM) of the same compound?
A: 0.251

Q: And the relative viability ([19]; first compound 0.8 µM)?
A: 0.236

Q: What about the relative viability ([19]; first compound 2.53 µM) of the same compound?
A: 0.227

Q: What about the relative viability ([20]; first compound 0.08 µM) of the same compound?
A: 0.427

Q: And the relative viability ([20]; first compound 0.253 µM)?
A: 0.384

Q: What about the relative viability ([20]; first compound 0.8 µM) of the same compound?
A: 0.422

Q: And the relative viability ([20]; first compound 2.53 µM)?
A: 0.4

Q: And the relative viability ([21]; first compound 0.08 µM)?
A: 0.681

Q: And the relative viability ([21]; first compound 0.253 µM)?
A: 0.602

Q: And the relative viability ([21]; first compound 0.8 µM)?
A: 0.663

Q: What about the relative viability ([21]; first compound 2.53 µM) of the same compound?
A: 0.697

Q: And the relative viability ([22]; first compound 0.08 µM)?
A: 0.401

Q: And the relative viability ([22]; first compound 0.253 µM)?
A: 0.327

Q: What about the relative viability ([22]; first compound 0.8 µM) of the same compound?
A: 0.415

Q: What about the relative viability ([22]; first compound 2.53 µM) of the same compound?
A: 0.32
